Measured values published in patent US20180207228A1, “PEPTIDE COMBINATIONS AND USES THEREOF FOR TREATING GRASS ALLERGY” (ALK-Abelló A/S, priority 2015, published 2018).
Where two headings read alike, the source gives them in different places. Where no end group is shown, it is not given here.

Tests used:
[1] = Extended solubility and short term stability study (visual, U-HPLC recovery, DLS, 90LS, UV-VIS, sum of scores); details: for solubility: pH 4.5
Experimental: For that purpose, the peptides were provided as acetate salts (produced by Innovagen® at a >10 mg scale of manufacturing). To take into account batch-to-batch variations, some peptides were tested from other batches of the manufacturer Innovagen®, as well as from another manufacturer (Almac) and from in-house production. Solubility experiments were performed on peptide in solution in concentrations ranging from 0.5 mg/mL to 3 mg/mL (dry matter)—with the following solvents: • Water • Acetate buffer, pH 4.5 (25 mM sodium acetate containing 250 mM D-Mannitol) • Phosphate buffer, pH 7.0 (25 mM sodium phosphate containing 250 mM D-Mannitol) • Glycine buffer, pH 8.5 (25 mM glycine containing 250 mM D-Mannitol)
The solubility of the peptides was initially investigated by visual inspection and U-HPLC recovery. Visual inspection included assessment of turbidity and presence of particles/aggregates of each peptide solution before and after centrifugation as well as visual inspection of pelleted material. The visual inspection were reported as “clear solution”, “very small precipitation only visible with a magnifier”, “precipitation visible/turbid solution” or “more precipitation/turbid solution”. Filtration of peptide solutions were conducted using syringe based filters containing a polyethersulfone (PES) membrane chemistry and a pore size of 0.2 μm. The amount of the peptide in the supernatant of a filtered sample was determined using U-HPLC with reverse phase chromatography and recovery were determined as described in Example 5.
Peptide solutions were investigated at a time point of 1 hour after production, but were also repeated at later time point (e.g. 24. 48 or 96 hours) to investigate the stability of the peptides.
Peptide solutions were investigated to determine the presence of turbidity/particles/aggregates by use of optical density (OD) and change in UV-VIS absorbance at a wavelength of 320 nm, of the filtrate. […] In addition or as an alternative, the amount of the peptide in the supernatant of a filtered sample was determined using U-HPLC as described above, with the exception that the recovery was determined by dividing the peak area of the filtered sample in relation to the peak area in the original solution prior to filtration. See also Example 5 for further details regarding UV-VIS, and recovery measured by U-HPLC.
The peptides were scored in relation to the outcome of the above mentioned tests: For each peptide in a given buffer and at a given concentration, a sum of test scores was calculated and the sum used to rank the peptides according to solubility: • 1. […] DLS peak 1 number 3 nm gave a score of 1, 3-10 nm gave a score of 2, 10-100 nm gave a score of 3, >100 nm gave a score of 4. • 5. 90LS at 400 nm: Intensity <450 gave a score of 1, <800 gave a score of 2, >800 gave a score of 3. • 6. UV-VIS change in absorbance at 320 nm within 24 hours: 0.01 gave a score of 1, ≤0.05 gave a score of 2, 0.0.2 gave a score of 3 and >0.2 gave a score of 4.

[2] = Bio-stability in 25% human serum (T½, degradation pattern by UHPLC and MS); format: in vitro ADME
Experimental: The supernatant was analyzed by UHPLC-UV/VIS and the peak-height/peak-area of the original peptide was determined at each time point. T½ of the original peptide was estimated by plotting Ln (peak-area) as a function of time. […] Therefore, the degradation pattern of each peptide was additionally studied. Extra peaks compared to the peak of the original peptide in the chromatogram were notified as potential degradation products. To assess the degradation pattern of each peptide and identify degradation products, the test samples were also investigated by mass spectroscopy (MS). Some peptides, for example, may be prone to cleavage by endopeptidases resulting in short peptide fragments unfit for binding to the HLA binding site, whereas other peptides may be more prone to cleavage by exopeptidases which may cleave one or more amino acid residues from the N or C-terminal end of the peptide resulting in a conserved HLA binding. […] Therefore, it is important to look at both the MS data and functional data to estimate the extent and effect of the degradation.

[3] = test system: grass pollen allergic donor derived T cell lines; experiment: Dose response titration in T cell proliferation assay; format: cell-based, human; details: single peptides, FIG. 21
Experimental: The dose-response relationship was tested by measuring the percentage of donor response (i.e. the percentage of donor coverage) in concentrations of 2.0, 0.1, 0.005 and 0.00025 μg/ml for the peptide combinations and in concentrations of 2.0, 0.2, 0.02 and 0.002 μg/ml for single peptides. The donor response was determined using T cell proliferation data as described in Example 3.
Relative magnitude value for a peptide or a peptide combination was calculated as percentage of highest T cell response to an allergen or a mix, by the same donor. In this way, allergen or peptide combination with highest magnitude of T cell response gets a value of 100 and T cell response magnitude of remaining peptides/peptide combinations are normalized or calculated relative to 100, for example Relative magnitude=100*(T cell response magnitude of peptide or combination/Highest T cell response in a donor). Relative magnitude were calculated mainly on Phl p 1. For donors non reactive to Phl p 1, Phl p 5 was used as reference
The donors were selected by seeking to maximize the HLA class II diversity in the donor cohort.
For peptide combinations, two set-ups were used:
A) Concentrations of 2.0, 0.1, 0.005 and 0.00025 μg/ml were tested on a set of T cell lines derived from 9 grass pollen allergic donors (same experiment as the data shown in FIG. 7b.).
B) Concentrations of 2.0, 0.066, 0.0022 and 0.00007 μg/ml were used on a set of T cell lines derived from 18 grass pollen allergic donors (same set as the donors used for testing of single peptides as described above).
Relative magnitude value for a peptide or a peptide combination was calculated as percentage of highest T cell response to an allergen or a mix, by the same donor. In this way, allergen or peptide combination with highest magnitude of T cell response gets a value of 100 and T cell response magnitude of remaining peptides/peptide combinations are normalized or calculated relative to 100, for example Relative magnitude=100*(T cell response magnitude of peptide or combination/Highest T cell response in a donor). […]

Substance	solubility in aqueous solutions and short-term stability [1]	solubility [1]	solubility in all the test samples (concentrations and pH tested), all solubility tests [1]	other results
AYESYKFIPALEAAVKQAYA-OH [peptide 285]	–	–	–	solubility by ranking scheme based on a sum of scores ([1]; 3 mg/ml, buffers tested): good solubility; solubility in aqueous solutions and short-term stability ([1]; pH in the range of 4.5 to 8.5): sufficiently soluble; <−3aa (%) ([2]; degradation details at 60 min): 0%; Sum full length or −1aa to −3aa ([2]; degradation details at 60 min): 100%; −1aa to −3aa (%) ([2]; degradation details at 60 min): 34%; half-life ([2]; male, 37° C.): 1.37 h; remaining at 1 h ([2]; male, degradation details at 60 min, read-out: Full length (%)): 66%
DKYRTFVATFGAASNKAFAE-OH [peptide 231]	sufficiently soluble	acceptable solubility	–	–
STGGAYESYKFIPALEAAVK-OH [compound 71]	sufficiently soluble	acceptable solubility	good solubility	average relative magnitude calculated over all donors [3]: high
TDDNEEPIAPYHFDLSGHAF-OH [peptide 204]	sufficiently soluble	acceptable solubility	good solubility	–
WGAIWRIDTPDKLTGPFTVR-OH [peptide 211]	sufficiently soluble	acceptable solubility	–	–
